These results are taken from ChEMBL document CHEMBL1140330, “Carbonic anhydrase inhibitors. Design of fluorescent sulfonamides as probes of tumor-associated carbonic anhydrase IX that inhibit isozyme IX-mediated acidification of hypoxic tumors” (J Med Chem, 2005).

Structures are written as SMILES.

Series [1] can be described thus: in vitro. The note with it: human, whole blood; level measured in red blood cells.
Description: Compound level in Red Blood Cells at 30 min, after exposure of 10 mL of Blood to compound solution by electronic spectroscopic method
For a further series, the target named is Carbonic anhydrase 9 (Homo sapiens, UniProt Q16790).
The nature of series [2]: in vitro. The note with it: human, whole blood; level measured in red blood cells. The source holds these as a separate data set.
Description: Compound level in Red Blood Cells at 60 min, after exposure of 10 mL of Blood to compound solution by electronic spectroscopic method
Series [3] is described as follows: in vitro. The following applies: human, whole blood; level measured in red blood cells. This is another data set of the same source.
Description: Compound level in Red Blood Cells at 48 h, after Exposure of 10 mL of Blood to Compound solution by electronic spectroscopic method
The target of a further series is Carbonic anhydrase 1 (Homo sapiens, UniProt P00915).
A short description of series [4]: in vitro. The following applies: human, whole blood; level measured in red blood cells. The source holds these as a separate data set.
Description: Compound level in Red Blood Cells at 60 min, after exposure of 10 mL of Blood to compound solution by HPLC method
Another series has as its target Carbonic anhydrase 2 (Homo sapiens, UniProt P00918).
Series [5] is described as follows: in vitro. The note with it: human, whole blood; level measured in red blood cells. This is another data set of the same source.
Description: Compound level in Red Blood Cells at 30 min, after exposure of 10 mL of Blood to compound solution by HPLC method
The nature of series [6]: in vitro. The following applies: human, whole blood; level measured in red blood cells. The source holds these as a separate data set.
Description: Compound level in Red Blood Cells at 48 h, after exposure of 10 mL of Blood to compound solution by HPLC method

Sequence of Carbonic anhydrase 1 (P00915 whole entry): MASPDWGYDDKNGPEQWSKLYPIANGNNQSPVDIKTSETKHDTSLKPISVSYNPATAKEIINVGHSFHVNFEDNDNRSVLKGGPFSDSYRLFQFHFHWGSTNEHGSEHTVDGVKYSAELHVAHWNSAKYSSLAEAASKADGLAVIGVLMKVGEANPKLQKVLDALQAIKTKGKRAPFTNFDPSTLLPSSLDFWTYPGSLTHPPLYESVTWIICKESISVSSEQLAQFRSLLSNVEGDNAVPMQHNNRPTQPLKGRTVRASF
Description for Carbonic anhydrase 1: Inhibition constant against human (cloned) isozyme (hCA I) by the CO2 hydration method
Description for Carbonic anhydrase 2: Inhibition constant against human (cloned) isozyme (hCA II) by CO2 hydration method
Description for Carbonic anhydrase 9: Inhibition constant against human cloned isozyme (hCA IX) by CO2 hydration method

In the case of `Cc1cc(C)[n+](Cc2ccc(S(N)(=O)=O)cc2)cc1C.[O-][Cl+3]([O-])([O-])[O-]`, the concentration at 0.5 h in the series “in vitro [1]” worked out at 0.5 µM; in the series “in vitro [5]”, 0.3 µM. Besides, the Ki at Carbonic anhydrase 9 is 38 nM; on Carbonic anhydrase 1 it was 7000 nM; at Carbonic anhydrase 2, 50 nM. Besides, the concentration at 1 h in the series “in vitro [2]” amounted to 0.5 µM; in “in vitro [4]”, 0.4 µM. The values for the concentration at 48 h in the series “in vitro [3]” and in the series “in vitro [6]” were 0.5 µM and 0.3 µM, respectively.
Consider `NCCc1ccc(S(N)(=O)=O)cc1`, for which the concentration at 0.5 h was 138 µM in the series “in vitro [1]” and 132 µM in the series “in vitro [5]”. Besides, the concentration at 1 h amounted to 165 µM in the series “in vitro [2]” and 162 µM in “in vitro [4]”. Besides, the values for the concentration at 48 h in “in vitro [3]” and in the series “in vitro [6]” were 168 µM and 167 µM, respectively.
As for `NS(=O)(=O)c1ccc(CC/N=C(S)/N=C2/C=CC(=C3c4ccc(O)cc4Oc4cc(O)ccc43)C(C(=O)O)=C2)cc1`, the Ki on Carbonic anhydrase 1 was determined as 1300 nM.
On to `NS(=O)(=O)c1ccc(C/N=C(S)/N=C2/C=CC(=C3c4ccc(O)cc4Oc4cc(O)ccc43)C(C(=O)O)=C2)cc1`, for which the Ki on Carbonic anhydrase 9 was 26 nM; on Carbonic anhydrase 1, 1450 nM.
For `NS(=O)(=O)c1ccc(/N=C(S)/N=C2/C=CC(=C3c4ccc(O)cc4Oc4cc(O)ccc43)C(C(=O)O)=C2)c(F)c1`, in that order: 30 nM and 980 nM.
Turning to `NS(=O)(=O)c1ccc(/N=C(S)/N=C2/C=CC(=C3c4ccc(O)cc4Oc4cc(O)ccc43)C(C(=O)O)=C2)c(Br)c1`, the Ki was determined as 35 nM at Carbonic anhydrase 9, 1100 nM on Carbonic anhydrase 1 and 43 nM at Carbonic anhydrase 2.
For the compound `NS(=O)(=O)c1ccc(/N=C(S)/N=C2/C=CC(=C3c4ccc(O)cc4Oc4cc(O)ccc43)C(C(=O)O)=C2)c(Cl)c1`, the Ki worked out at 32 nM on Carbonic anhydrase 9, 950 nM on Carbonic anhydrase 1 and 52 nM on Carbonic anhydrase 2.
Turning to `NS(=O)(=O)c1ccc(/N=C(S)/N=C2/C=CC(=C3c4ccc(O)cc4Oc4cc(O)ccc43)C(C(=O)O)=C2)c(I)c1`, the Ki at Carbonic anhydrase 9 came to 31 nM; on Carbonic anhydrase 1, 1070 nM; on Carbonic anhydrase 2, 40 nM.
For `CC(=O)/N=c1/sc(S(N)(=O)=O)nn1C` [METHAZOLAMIDE], the concentration at 0.5 h was determined as 169 µM in the series “in vitro [1]” and 170 µM in the series “in vitro [5]”. Besides, the concentration at 1 h in the series “in vitro [2]” and in “in vitro [4]” was 168 µM throughout. The concentration at 48 h in the series “in vitro [3]” turned out to be 169 µM; in “in vitro [6]” it was 167 µM.
